Laboratory results from patent US20230146455A1, “TREATMENT OF INFLAMMATORY DISEASES WITH PEPTIDES AND PHARMACEUTICAL COMPOSITIONS” (Yuyu Pharma, Inc., priority 2020, published 2023).
Values joined by “and” are separate entries in the source; they are usually repeats but may differ in a detail not shown here. Identical values can stand only once. Where a SMILES comes first, the peptide text is derived from it. [ ]: non-standard residue; d: D form. Hyp = O=C(O)[C@@H]1C[C@@H](O)CN1

System: CCL3/MIP-1 alpha
Assay: Example 9 Luminex, LPS hPBMCs: CCL3/MIP-1 alpha
Type: cell-based, human
Experimental: Treatment Human PBMCs were pretreated with YY-101, YDE-011 and YDE-043 or reference compound; Xiidra® at various concentration (ranging from 1 nM to 100 uM) for 2 h before stimulation. An equal volume of 0.5% DMSO was used as a vehicle control. Then, the cells were treated with LPS at 5 ug/ml. The supernatants from treated cells were harvested at 24 h and placed in a 96 well for Luminex cytokine & chemokine profiling using a Luminex 200 multiplex assay (Luminex; R&D system, USA).
The main study arm with triplicate wells per group in a 24-well plate: • 1. Blank • 2. PBMC: 0.5% DMSO • 3. PBMC+LPS (5 ug/ml) • 4. PBMC+YY-101 100 uM • 5. PBMC+YY-101 10 uM • 6. PBMC+YY-101 1 uM • 7. PBMC+YY-101 0.1 uM • 8. PBMC+YY-101 0.01 uM • 9. PBMC+LPS (5 ug/ml)+Xiidra®100 uM • 10. PBMC+LPS (5 ug/ml)+Xiidra® 10 uM • 11. PBMC+LPS (5 ug/ml)+Xiidra® 1 uM • 12. PBMC+LPS (5 ug/ml)+Xiidra®0.1 uM • 13. PBMC+LPS (5 ug/ml)+Xiidra®0.01 uM • 14. PBMC+LPS (5 ug/ml)+Xiidra®0.001 uM • 15. PBMC+LPS (5 ug/ml)+YY-101 100 uM • 16. PBMC+LPS (5 ug/ml)+YY-101 10 uM • 17. PBMC+LPS (5 ug/ml)+YY-101 1 uM • 18. PBMC+LPS (5 ug/ml)+YY-101 0.1 uM • 19. PBMC+LPS (5 ug/ml)+YY-101 0.01 uM • 20. PBMC+LPS (5 ug/ml)+YY-101 0.001 uM • 21. PBMC+LPS (5 ug/ml)+YDE-011 100 uM • 22. PBMC+LPS (5 ug/ml)+YDE-011 10 uM • 23. PBMC+LPS (5 ug/ml)+YDE-011 1 uM • 24. PBMC+LPS (5 ug/ml)+YDE-011 0.1 uM • 25. PBMC+LPS (5 ug/ml)+YDE-011 0.01 uM • 26. PBMC+LPS (5 ug/ml)+YDE-011 0.001 uM • 27. PBMC+LPS (5 ug/ml)+YDE-043 100 uM • 28. PBMC+LPS (5 ug/ml)+YDE-043 10 uM • 29. PBMC+LPS (5 ug/ml)+YDE-043 1 uM • 30. PBMC+LPS (5 ug/ml)+YDE-043 0.1 uM • 31. PBMC+LPS (5 ug/ml)+YDE-043 0.01 uM • 32. PBMC+LPS (5 ug/ml)+YDE-043 0.001 uM
Multiplex assay was used to measure 30 cytokines and chemokines. The 1:2, 1:10 and 1:200 diluted cell supernatant and serial dilution of the standard were dispensed into a 96 well plate at 50 ul/well. Then, the pre-mixed cocktail of antibody-coated magnetic beads was dispensed at 50 ul/well and incubated at room temperature for 2 h in a horizontal orbital microplate shaker at 800±500 rpm. The beads were washed using a magnetic device to prevent loss. The biotin-antibody was dispensed in 50 ul of each well and incubated at room temperature for 1 h in a shaker at 800±500 rpm. After washing, streptavidin-PE was added at 50 ul/well and incubated at room temperature for 30 min in a shaker under the same conditions. Finally, after washing, wash buffer (100 ul/well) was added to the plate and incubated in a shaker for 2 min. The Luminex™ 200 setting were set according to the manufacturer's protocol. The data was calculated with a standard five-parameter logistic nonlinear regression analysis of the data (xPonent software 4.2, USA). The levels of cytokine/chemokine are normalized to the live cell counts (1×10^5 cells/mL) and presented as concentrations per mL (pg/mL or ng/mL).

[1] = PBMC + LPS(5 ug/ml) + test article 0.001 uM, Mean
[2] = PBMC + LPS(5 ug/ml) + test article 0.001 uM, individual replicates
[3] = PBMC + LPS(5 ug/ml) + test article 0.01 uM, Mean
[4] = PBMC + LPS(5 ug/ml) + test article 0.01 uM, individual replicates
[5] = PBMC + LPS(5 ug/ml) + test article 0.1 uM, Mean
[6] = PBMC + LPS(5 ug/ml) + test article 0.1 uM, individual replicates
[7] = PBMC + LPS(5 ug/ml) + test article 1 uM, Mean
[8] = PBMC + LPS(5 ug/ml) + test article 1 uM, individual replicates
[9] = PBMC + LPS(5 ug/ml) + test article 10 uM, Mean
[10] = PBMC + LPS(5 ug/ml) + test article 10 uM, individual replicates
[11] = PBMC + LPS(5 ug/ml) + test article 100 uM, Mean
[12] = PBMC + LPS(5 ug/ml) + test article 100 uM, individual replicates
[13] = PBMC + test article 1 uM, no LPS, Mean
[14] = PBMC + test article 1 uM, no LPS, individual replicates
[15] = PBMC + test article 10 uM, no LPS, Mean
[16] = PBMC + test article 10 uM, no LPS, individual replicates
[17] = PBMC + test article 100 uM, no LPS, Mean
[18] = PBMC + test article 100 uM, no LPS, individual replicates

Row | SMILES | Concentration [1] [pg/mL] | conc/live cell [1] [pg/10^5] | Concentration [2] | conc/live cell [2] | Concentration [3] [pg/mL] | conc/live cell [3] [pg/10^5] | Concentration [4] | conc/live cell [4] | Concentration [5] [pg/mL] | conc/live cell [5] [pg/10^5] | Concentration [6] | conc/live cell [6] | Concentration [7] [pg/mL] | conc/live cell [7] [pg/10^5] | Concentration [8] | conc/live cell [8] | Concentration [9] [pg/mL] | conc/live cell [9] [pg/10^5] | Concentration [10] | conc/live cell [10] | also measured
1 | CC(C)C[C@H](NC(=O)CNC(=O)[C@H](CC(C)C)NC(=O)[C@H](CCC(N)=O)NC(=O)CNC(=O)[C@@H]1C[C@@H](O)CN1)C(=O)N[C@@H](C)C(=O)NCC(=O)N1CCC[C@H]1C(=O)N[C@@H](CCCCN)C(=O)O [YDE-011] (H-[Hyp]GQLGLAGPK-OH) | 7478.7 | 1414.4 | 7525.9 pg/mL and 7321.9 pg/mL and 7588.4 pg/mL | 1672.4 pg/10^5 and 1262.4 pg/10^5 and 1308.3 pg/10^5 | 7584.1 | 1304.0 | 7600.8 pg/mL and 7525.9 pg/mL and 7625.5 pg/mL | 1225.9 pg/10^5 and 1475.7 pg/10^5 and 1210.4 pg/10^5 | 7103.9 | 1250.7 | 6974.8 pg/mL and 7334.8 pg/mL and 7002.2 pg/mL | 1056.8 pg/10^5 and 1467.0 pg/10^5 and 1228.5 pg/10^5 | 7537.7 | 1505.0 | 7399.2 pg/mL and 7613.2 pg/mL and 7600.8 pg/mL | 1345.3 pg/10^5 and 1586.1 pg/10^5 and 1583.5 pg/10^5 | 7734.7 | 1473.3 | 7962.5 pg/mL and 7373.5 pg/mL and 7868.0 pg/mL | 1474.5 pg/10^5 and 1271.3 pg/10^5 and 1674.0 pg/10^5 | Concentration [11]: 7968.8 pg/mL; conc/live cell [11]: 1313.3 pg/10^5; Concentration [12]: 8238.4 pg/mL and 8067.3 pg/mL and 7600.8 pg/mL; conc/live cell [12]: 1350.6 pg/10^5 and 1322.5 pg/10^5 and 1266.8 pg/10^5
2 | CC(C)C[C@H](NC(=O)[C@H](CCC(N)=O)NC(=O)CNC(=O)[C@@H]1C[C@@H](O)CN1)C(=O)NCC(=O)O [YDE-043] (H-[Hyp]GQLG-OH; N-terminus and C-terminus assumed) | 7935.0 | 1611.4 | 7637.9 pg/mL and 8204.6 pg/mL and 7962.5 pg/mL | 1735.9 pg/10^5 and 1367.4 pg/10^5 and 1731.0 pg/10^5 | 7883.4 | 1505.4 | 7796.2 pg/mL and 7985.9 pg/mL and 7868.0 pg/mL | 1732.5 pg/10^5 and 1210.0 pg/10^5 and 1573.6 pg/10^5 | 7645.0 | 1418.9 | 7513.4 pg/mL and 7625.5 pg/mL and 7796.2 pg/mL | 1502.7 pg/10^5 and 1361.7 pg/10^5 and 1392.2 pg/10^5 | 7636.6 | 1442.9 | 7962.5 pg/mL and 6891.7 pg/mL and 8055.7 pg/mL | 1372.8 pg/10^5 and 1435.8 pg/10^5 and 1520.0 pg/10^5 | 7606.3 | 1409.0 | 7500.8 pg/mL and 7450.2 pg/mL and 7868.0 pg/mL | 1442.5 pg/10^5 and 1379.7 pg/10^5 and 1405.0 pg/10^5 | Concentration [11]: 7769.2 pg/mL; conc/live cell [11]: 1234.0 pg/10^5; Concentration [12]: 7962.5 pg/mL and 7575.9 pg/mL; conc/live cell [12]: 1284.3 pg/10^5 and 1183.7 pg/10^5
3 | CC(C)C[C@H](NC(=O)CNC(=O)[C@H](CC(=O)O)NC(=O)[C@H](CCC(N)=O)NC(=O)CNC(=O)[C@@H]1C[C@@H](O)CN1)C(=O)N[C@@H](C)C(=O)NCC(=O)N1CCC[C@H]1C(=O)N[C@@H](CCCCN)C(=O)O [YY-101] (H-[Hyp]GQDGLAGPK-OH; N-terminus and C-terminus assumed) | 26885.9 | 4200.1 | 27986.1 pg/mL and 27195.8 pg/mL and 25475.7 pg/mL | 4909.8 pg/10^5 and 3830.4 pg/10^5 and 3860.0 pg/10^5 | 28932.4 | 4694.7 | 29329.0 pg/mL and 29395.7 pg/mL and 28072.3 pg/mL | 4582.7 pg/10^5 and 4899.3 pg/10^5 and 4602.0 pg/10^5 | 28457.4 | 4886.3 | 28362.4 pg/mL and 28665.1 pg/mL and 28344.5 pg/mL | 4574.6 pg/10^5 and 5512.5 pg/10^5 and 4571.7 pg/10^5 | 28059.0 | 4314.1 | 28714.8 pg/mL and 27440.0 pg/mL and 28022.0 pg/mL | 4557.9 pg/10^5 and 3864.8 pg/10^5 and 4519.7 pg/10^5 | 29972.3 | 4549.0 | 30117.5 pg/mL and 30769.7 pg/mL and 29029.8 pg/mL | 5019.6 pg/10^5 and 4807.8 pg/10^5 and 3819.7 pg/10^5 | Concentration [11]: 33310.8 pg/mL; conc/live cell [11]: 5765.5 pg/10^5; Concentration [12]: 35374.6 pg/mL and 31775.7 pg/mL and 32782.2 pg/mL; conc/live cell [12]: 5615.0 pg/10^5 and 5125.1 pg/10^5 and 6556.4 pg/10^5; conc/live cell (PBMC + test article 0.01 uM, no LPS, Mean): 0.0 pg/10^5; conc/live cell (PBMC + test article 0.1 uM, no LPS, Mean): 0.0 pg/10^5; Concentration [13]: 588.0 pg/mL; conc/live cell [13]: 53.5 pg/10^5; Concentration [14]: 588.0 pg/mL; conc/live cell [14]: 106.9 pg/10^5 and 0.0 pg/10^5; Concentration [15]: 1997.0 pg/mL; conc/live cell [15]: 156.0 pg/10^5; Concentration [16]: 1997.0 pg/mL; conc/live cell [16]: 312.0 pg/10^5 and 0.0 pg/10^5; Concentration [17]: 1030.2 pg/mL; conc/live cell [17]: 80.5 pg/10^5; Concentration [18]: 1030.2 pg/mL; conc/live cell [18]: 161.0 pg/10^5 and 0.0 pg/10^5
